Source: patent US20140088056A1, “CARDIAC GLYCOSIDES ARE POTENT INHIBITORS OF INTERFERON-BETA GENE EXPRESSION” (priority 2010, published 2014)
Where two headings read alike, the source gives them in different places. Marks after values point to notes of the source that are not given here.

How the values were obtained:
[1] = test system: IFNβ promoter; assay: cells; assay type: cell-based, human; conditions: for IC50: Homo sapiens, HEK-293T, read-out: IC50 for inhibition of virus induced IFNβ expression; for effect of ion-channel ligands on IFNβ reporter: increasing concentrations
Protocol: 293T cells were transfected with the IFNβ promoter driving a firefly luciferase reporter together a reference renilla luciferase reporter plasmid. […] Firefly luciferase activities were measured after another 24 hrs and normalized to that of renilla activities.
293T cells were transfected with an IFNβ promoter driving luciferase reporter, 24 hrs later, increasing amounts (10 nM to 10 uM) of Ouabain (FIG. 8A) or digoxin (FIG. 8B) were added to cells before the Sendai virus infection. Luciferase activities were measured one day later.
Approximately 40,000 293T cells were seeded in a 96 well plate, and co-transfected with IFNβ-110 firefly luciferase reporter and renilla luciferase plasmids (Fitzgerald, K. A. et al. IKKepsilon and TBK1 are essential components of the IRF3 signaling pathway. Nat Immunol 4, 491-6 (2003)). After 24 hrs, cells were treated with various chemicals at the indicated concentrations, and sendai virus infection was initiated one hour later. After another 24 hrs, cells were lysed and subjected to Dual-Glo luciferase assay analysis (Promega) with an Analyst AD plate reader.
Human 293T cells were transfected with the IFNβ promoter driving the expression of luciferase construct. The cells were treated with a library of chemical compounds, and sendai virus (SeV) infection initiated one hour later. Luciferase activity was measured after another 24 hrs of culture. Signals were normalized to the samples not treated with chemicals.

[2] = test system: TNF signaling; conditions: Yang et al.; blocks TRADD recruitment, inhibits IKBα degradation; cited from earlier work
[3] = test system: endogenous IFNβ gene; assay: RT-PCR of virus induced endogenous IFNβ gene in 293T cells treated with ion-channel modulators; assay type: cell-based, human; conditions: 10 uM, 6 hrs
Protocol: 293T cells were treated with 10 uM of nimodipine, diazoxide or phenamil 30 min before Sendai virus infection, 6 hrs later total RNA were extracted and the expression of various genes were analyzed by RT-PCR.
Since the major function of the pump is to maintain the cellular ion homeostasis, the inventors reasoned that it might be possible to inhibit or stimulate IFNβ induction by varying the intracellular ion concentration. The inventors thus performed luciferase reporter assays with an ion-channel ligand library, which contains various modulators for sodium, potassium, calcium and chloride channels. The experiments were conducted similarly to the initial screening assays: 293T cells were transfected with reporter plasmid, then chemical ligands were added before starting virus infection, and luciferase activity measured after another 24 hrs.

[4] = test system: 293T cells; assay: Western blot analysis of apoptosis and autophagy; assay type: cell-based, human; conditions: 8 hours, bufalin 1 nM to 10 μM, staurosporine 4 μM; for induction of LC3B-II (marker of autophagy): BFA 100 nM
Protocol: (§1) The cells were also exposed to 0.1% Triton X-100 for 1 hr before the viability assay as a control (FIG. 16E). Data represent mean values±s.d. (n=3). […] Cells were harvested and washed, then stained with Allophycocyanin (APC) conjugated Annexin V and 7-AAD for 15 minutes and subjected to flow cytometry analysis. The number in each graph is the percentile of Annexin V or 7-AAD positive populations. […] Total protein lysates were prepared and separated on SDS-PAGE for Western blot analysis of PARP1, cleaved PARP1, cleaved Caspase3, LC3B, ATP1a1, and beta-actin expression.
Apoptosis and autophagy were also analyzed by Western blots. […] Total protein lysates were prepared and separated on SDS-PAGE for Western blot analysis of PARP1, cleaved PARP1, cleaved Caspase3, LC3B, ATP1a1, and beta-actin expression.

[5] = test system: 293T cells; assay: Flow cytometry analysis of apoptosis (Annexin V / 7-AAD); assay type: cell-based, human; conditions: bufalin 1 μM 8 hours; staurosporine 4 μM 4 hours
Protocol: as §1
Treated cells and untreated control cells were harvested and washed with PBS, and stained with APC conjugated Annexin V and 7-AAD (both from BD Biosciences) in Annexin V binding buffer (10 mM HEPES, pH 7.4, 140 mM NaCl, 2.5 mM CaCl2) for 15 minutes at room temperature, and then subjected to flow cytometry analysis on a FACSCalibur (BD Biosciences).
Cells were harvested and washed, then stained with Allophycocyanin (APC) conjugated Annexin V and 7-AAD for 15 minutes and subjected to flow cytometry analysis. […] 11 for sturosporine.

Cn1c2ccccc2c2c3c(c4c5ccccc5n(CCC#N)c4c21)CNC3=O [Go 6976]
Inhibition % of virus induced IFNβ expression ([1]; tested at 3 μM, chemical library screen): 55.9* %

C[C@H]1O[C@@H](O[C@H]2[C@@H](O)C[C@H](O[C@H]3[C@@H](O)C[C@H](O[C@H]4CC[C@@]5(C)[C@H](CC[C@@H]6[C@@H]5C[C@@H](O)[C@]5(C)[C@@H](C7=CC(=O)OC7)CC[C@]65O)C4)O[C@@H]3C)O[C@@H]2C)C[C@H](O)[C@@H]1O [digoxin]
IC50 [1]: 56.6 nM

C[C@H]1O[C@@H](O[C@H]2[C@@H](O)C[C@H](O[C@H]3[C@@H](O)C[C@H](O[C@H]4CC[C@@]5(C)[C@H](CC[C@@H]6[C@@H]5CC[C@]5(C)[C@@H](C7=CC(=O)OC7)CC[C@]65O)C4)O[C@@H]3C)O[C@@H]2C)C[C@H](O)[C@@H]1O [digitoxin]
TNF signaling [2]: inhibit

CC1=NS(=O)(=O)c2cc(Cl)ccc2N1 [diazoxide, Diazoxide]
effect of ion-channel ligands on IFNβ reporter [1]: more inhibition
virus induced expression of the endogenous IFNβ gene [3]: similarly inhibited

CO/C1=C\C(C)=C\[C@@H](C)[C@@H](O)[C@@H](C)C/C(C)=C/C=C/[C@H](OC)[C@@H]([C@@H](C)[C@@H](O)[C@H](C)[C@@]2(O)C[C@@H](O)[C@H](C)[C@@H](C(C)C)O2)OC1=O [BFA, bafilomycin A1]
induction of LC3B-II (marker of autophagy) [4]: induced

O=C(Nc1cccc(Nc2cc(Nc3cccc(C(F)(F)F)c3)ncn2)c1)C1CC1 [EGF receptor inhibitor]
Inhibition % @ 10 μM of virus induced IFNβ expression ([1]; chemical library screen): 38.5%

C[C@@H]1O[C@@H](O[C@H]2C[C@@H](O)[C@]3(CO)[C@H]4[C@H](O)C[C@]5(C)[C@@H](C6=CC(=O)OC6)CC[C@]5(O)[C@@H]4CC[C@]3(O)C2)[C@H](O)[C@H](O)[C@H]1O [ouabain]
IC50 ([1]; 293T cells, Sendai virus): 64.8 nM

NC(=Nc1ccccc1)NC(=O)c1nc(Cl)c(N)nc1N [phenamil]
effect of ion-channel ligands on IFNβ reporter [1]: consistently enhanced
virus induced expression of the endogenous IFNβ gene [3]: less potent

CC#CC(=O)Nc1cc2c(Nc3ccc(F)c(Cl)c3)ncnc2cn1 [EGFR/ErbB-2/ErbB-4 Inhibitor]
Inhibition % @ 10 μM of virus induced IFNβ expression ([1]; chemical library screen): 20.6%

CN[C@@H]1C[C@H]2O[C@@](C)([C@@H]1OC)n1c3ccccc3c3c4c(c5c6ccccc6n2c5c31)C(=O)NC4 [staurosporine]
Percentile of Annexin V or 7-AAD positive populations [5]: 17.11
cleavage products of PARP1 and Caspase3 (indication of apoptosis) [4]: induced
induction of LC3B-II (marker of autophagy) [4]: induced

O=C(Nc1ccc([N+](=O)[O-])cc1O)Nc1ccccc1Br [SB 225002]
Inhibition % @ 10 μM of virus induced IFNβ expression ([1]; chemical library screen): 50.8%
